Active and inactive are the calls of the source.
Experiments:
[1] = Luminescence-based cell-based high throughput dose response assay to identify activators of the DAF-12 from the parasite S. stercoralis (ssDAF-12).; type: functional
[2] = molecular target: T1, DNA repair protein RAD52 homolog (Homo sapiens, UniProt P43351); type: functional, biochemical
T1 sequence (P43351 whole entry): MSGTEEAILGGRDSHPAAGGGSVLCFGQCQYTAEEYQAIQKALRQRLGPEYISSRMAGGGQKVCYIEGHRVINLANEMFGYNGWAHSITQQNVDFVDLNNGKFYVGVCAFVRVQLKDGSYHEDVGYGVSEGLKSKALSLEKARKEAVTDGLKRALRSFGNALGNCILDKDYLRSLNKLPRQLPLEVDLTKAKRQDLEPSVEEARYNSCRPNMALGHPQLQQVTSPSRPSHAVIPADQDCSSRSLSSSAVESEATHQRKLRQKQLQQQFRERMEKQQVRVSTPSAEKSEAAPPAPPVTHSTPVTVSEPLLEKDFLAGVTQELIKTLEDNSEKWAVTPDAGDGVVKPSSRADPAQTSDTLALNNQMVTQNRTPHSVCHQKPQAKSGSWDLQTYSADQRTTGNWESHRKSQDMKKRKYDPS

[3] = reduction of Shn3 3'UTR-driven luciferase in osteoblasts – cell-based, Clone20 osteoblasts, firefly luciferase, cherry-picked, dose response (AID 624132); type: functional;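 note: firefly luciferase luminescence from reporter carrying the Shn3 3'UTR in osteoblasts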
[4] = viability loss in HeLa cells – cytotoxicity control for MgcRacGAP inhibitor project, dose response (AID 624300); type: functional
[5] = non-specific 3'UTR reporter inhibition in Clone20-Shn3RL – cell-based, Renilla luciferase, cherry-picked, counter-screen for Shn3 inhibitor project, dose response (AID 624133); type: functional
[6] = molecular target: T2, Rac GTPase-activating protein 1 (Homo sapiens, UniProt Q9H0H5); experiment: blockers of MgcRacGAP-driven Rac1 GTP hydrolysis – biochemical, ADP Hunter fluorescence, primary and confirmatory, confirmation (AID 624330); type: functional
T2 sequence (Q9H0H5 whole entry): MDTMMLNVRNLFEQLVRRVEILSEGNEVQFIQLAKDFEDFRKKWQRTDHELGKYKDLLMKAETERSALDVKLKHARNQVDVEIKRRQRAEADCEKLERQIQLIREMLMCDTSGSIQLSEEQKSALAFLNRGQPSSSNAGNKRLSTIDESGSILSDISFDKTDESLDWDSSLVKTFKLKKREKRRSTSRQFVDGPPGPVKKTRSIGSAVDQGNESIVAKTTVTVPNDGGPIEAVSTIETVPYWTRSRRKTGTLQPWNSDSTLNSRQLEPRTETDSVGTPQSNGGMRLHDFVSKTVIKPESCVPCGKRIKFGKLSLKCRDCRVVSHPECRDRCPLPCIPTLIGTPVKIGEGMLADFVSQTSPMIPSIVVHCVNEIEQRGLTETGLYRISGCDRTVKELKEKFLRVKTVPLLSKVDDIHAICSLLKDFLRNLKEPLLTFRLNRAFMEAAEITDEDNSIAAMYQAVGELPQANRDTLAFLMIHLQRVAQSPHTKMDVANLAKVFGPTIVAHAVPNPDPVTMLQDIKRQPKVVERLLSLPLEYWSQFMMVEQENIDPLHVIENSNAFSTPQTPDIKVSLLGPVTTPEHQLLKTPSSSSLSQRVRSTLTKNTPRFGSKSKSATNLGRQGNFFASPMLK

[7] = molecular target: T3, Histone-lysine N-methyltransferase NSD2 (Homo sapiens, UniProt O96028); type: biochemical
T3 sequence (O96028 whole entry): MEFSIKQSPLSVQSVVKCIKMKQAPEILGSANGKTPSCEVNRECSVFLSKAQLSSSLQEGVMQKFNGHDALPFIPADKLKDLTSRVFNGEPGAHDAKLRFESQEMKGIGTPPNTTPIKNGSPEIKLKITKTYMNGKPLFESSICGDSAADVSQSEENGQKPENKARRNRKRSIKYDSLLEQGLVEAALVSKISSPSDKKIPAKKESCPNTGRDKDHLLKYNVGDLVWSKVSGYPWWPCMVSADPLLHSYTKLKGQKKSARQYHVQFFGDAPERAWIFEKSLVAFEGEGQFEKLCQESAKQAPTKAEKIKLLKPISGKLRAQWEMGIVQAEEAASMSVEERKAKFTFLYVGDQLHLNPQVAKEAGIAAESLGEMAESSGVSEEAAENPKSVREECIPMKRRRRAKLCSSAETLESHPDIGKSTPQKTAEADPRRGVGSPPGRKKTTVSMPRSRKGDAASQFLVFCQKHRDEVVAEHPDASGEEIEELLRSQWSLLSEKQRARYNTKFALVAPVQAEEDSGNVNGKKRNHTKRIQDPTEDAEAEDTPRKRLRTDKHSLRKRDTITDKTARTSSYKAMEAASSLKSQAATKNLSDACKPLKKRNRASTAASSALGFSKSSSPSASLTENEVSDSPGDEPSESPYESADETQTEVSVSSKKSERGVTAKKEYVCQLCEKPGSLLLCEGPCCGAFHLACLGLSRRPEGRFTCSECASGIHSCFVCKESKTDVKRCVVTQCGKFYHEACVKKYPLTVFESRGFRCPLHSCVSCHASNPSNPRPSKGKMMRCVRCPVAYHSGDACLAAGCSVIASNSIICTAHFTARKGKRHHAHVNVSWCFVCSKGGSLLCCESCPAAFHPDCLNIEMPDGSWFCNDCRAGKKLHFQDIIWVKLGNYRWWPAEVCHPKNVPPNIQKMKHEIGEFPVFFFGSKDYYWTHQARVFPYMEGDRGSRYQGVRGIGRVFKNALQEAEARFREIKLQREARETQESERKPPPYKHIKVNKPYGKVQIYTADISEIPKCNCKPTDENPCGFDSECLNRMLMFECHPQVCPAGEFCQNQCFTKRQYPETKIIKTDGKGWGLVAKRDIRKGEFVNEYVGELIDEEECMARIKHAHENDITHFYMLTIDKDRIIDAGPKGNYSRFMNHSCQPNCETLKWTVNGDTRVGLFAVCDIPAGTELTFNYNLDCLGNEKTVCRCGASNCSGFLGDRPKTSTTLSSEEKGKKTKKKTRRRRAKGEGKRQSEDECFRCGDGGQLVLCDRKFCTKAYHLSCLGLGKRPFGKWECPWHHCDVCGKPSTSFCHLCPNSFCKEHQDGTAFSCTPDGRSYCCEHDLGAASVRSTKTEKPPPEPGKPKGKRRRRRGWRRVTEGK

[8] = molecular target: Paired box protein Pax-8 (Homo sapiens, UniProt Q06710); experiment: PAX8 transcriptional activity inhibition in RMG-I – RMG-I cells, luciferase, cherry-pick, dose response (AID 687027); type: functional, cell-based;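 note: luciferase reporter driven by Pax8 target thyroperoxidase promoter measured by SteadyGlo luminescence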
[9] = Cytotoxicity screening for potential Inhibitors of Bacterial Capsule Biogenesis. [Related pubchem assays (depositor defined):AID488970]; type: functional
[10] = molecular target: T4, Oxysterols receptor LXR-beta (Homo sapiens, UniProt P55055); experiment: LXR agonists, Gal4 luciferase reporter, dose response, counter-screen for ssDAF-12 agonist project, cell-based, luminescence, HEK293, S. stercoralis campaign (AID 720737); type: functional; conditions: read-out: IC50 (the source's name)
T4 sequence (P55055 whole entry): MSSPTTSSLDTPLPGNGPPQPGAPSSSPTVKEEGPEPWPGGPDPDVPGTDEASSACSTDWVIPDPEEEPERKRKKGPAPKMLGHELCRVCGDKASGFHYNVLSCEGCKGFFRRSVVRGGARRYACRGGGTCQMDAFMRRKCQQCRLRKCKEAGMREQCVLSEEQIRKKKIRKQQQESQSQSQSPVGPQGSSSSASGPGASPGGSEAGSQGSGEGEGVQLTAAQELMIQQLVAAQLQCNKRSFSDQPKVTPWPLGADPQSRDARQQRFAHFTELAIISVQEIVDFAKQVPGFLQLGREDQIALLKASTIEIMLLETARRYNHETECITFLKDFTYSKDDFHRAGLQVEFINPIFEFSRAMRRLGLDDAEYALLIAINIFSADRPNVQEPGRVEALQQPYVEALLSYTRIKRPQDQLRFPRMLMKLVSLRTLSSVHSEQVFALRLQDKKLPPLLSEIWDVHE

[11] = loss of viability in HepG2 cells – cell-based, CellTiter-Glo, cherry-picked, cytotoxicity control for Shn3 inhibitor project, dose response (AID 624134); type: functional
[12] = molecular target: Phosphoethanolamine/phosphocholine phosphatase (Homo sapiens, UniProt Q8TCT1); experiment: SAR assay for compounds that inhibit PHOSPHO1. [Related pubchem assays (depositor defined):AID1545, AID1565, AID1574]
[13] = molecular target: Phosphomannomutase 2 (Homo sapiens, UniProt O15305); experiment: Counter screen SAR assay for PMM2 inhibitors via a fluorescence intensity assay. [Related pubchem assays (depositor defined):AID1545, AID1574]
[14] = molecular target: T5, Mannose-6-phosphate isomerase (Homo sapiens, UniProt P34949); experiment: phosphomannose isomerase inhibition – biochemical, fluorescence intensity, confirmation (AID 1535)
T5 sequence (P34949 whole entry): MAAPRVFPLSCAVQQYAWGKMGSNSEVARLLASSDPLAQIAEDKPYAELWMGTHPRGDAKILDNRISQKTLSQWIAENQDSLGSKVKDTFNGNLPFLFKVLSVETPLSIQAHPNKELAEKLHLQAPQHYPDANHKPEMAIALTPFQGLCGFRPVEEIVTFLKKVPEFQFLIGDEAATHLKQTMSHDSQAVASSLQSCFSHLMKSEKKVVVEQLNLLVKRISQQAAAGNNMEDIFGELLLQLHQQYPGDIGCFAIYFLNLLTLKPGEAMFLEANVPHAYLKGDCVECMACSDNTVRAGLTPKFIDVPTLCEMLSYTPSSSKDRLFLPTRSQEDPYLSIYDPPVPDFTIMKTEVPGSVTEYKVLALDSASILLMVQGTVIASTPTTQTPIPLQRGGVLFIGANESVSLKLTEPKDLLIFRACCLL

[15] = RanGTP/importin-beta interaction disruptors – biochemical, plate reader, dry powder, dose response (AID 493048); design: species or system Homo sapiens

Phosphomannomutase 2, sequence (O15305 whole entry): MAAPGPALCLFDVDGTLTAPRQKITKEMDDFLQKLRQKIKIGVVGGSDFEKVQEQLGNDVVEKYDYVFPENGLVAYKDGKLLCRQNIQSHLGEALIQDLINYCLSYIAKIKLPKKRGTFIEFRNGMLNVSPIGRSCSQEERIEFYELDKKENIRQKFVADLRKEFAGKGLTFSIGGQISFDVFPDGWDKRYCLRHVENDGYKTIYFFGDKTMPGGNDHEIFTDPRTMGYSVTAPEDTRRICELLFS
Paired box protein Pax-8, sequence (Q06710 whole entry): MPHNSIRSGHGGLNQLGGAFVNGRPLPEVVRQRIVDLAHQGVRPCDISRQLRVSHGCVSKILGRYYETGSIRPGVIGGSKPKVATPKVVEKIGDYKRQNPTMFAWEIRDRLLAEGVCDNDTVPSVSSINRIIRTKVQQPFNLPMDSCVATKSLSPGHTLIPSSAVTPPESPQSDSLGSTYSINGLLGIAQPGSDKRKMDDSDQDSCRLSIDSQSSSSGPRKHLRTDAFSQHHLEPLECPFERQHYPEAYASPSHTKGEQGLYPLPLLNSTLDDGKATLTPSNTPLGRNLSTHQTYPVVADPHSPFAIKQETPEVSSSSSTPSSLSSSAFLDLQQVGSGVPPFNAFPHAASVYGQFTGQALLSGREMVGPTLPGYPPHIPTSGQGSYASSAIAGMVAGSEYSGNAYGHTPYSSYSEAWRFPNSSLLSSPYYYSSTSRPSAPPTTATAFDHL
Phosphoethanolamine/phosphocholine phosphatase, sequence (Q8TCT1 whole entry): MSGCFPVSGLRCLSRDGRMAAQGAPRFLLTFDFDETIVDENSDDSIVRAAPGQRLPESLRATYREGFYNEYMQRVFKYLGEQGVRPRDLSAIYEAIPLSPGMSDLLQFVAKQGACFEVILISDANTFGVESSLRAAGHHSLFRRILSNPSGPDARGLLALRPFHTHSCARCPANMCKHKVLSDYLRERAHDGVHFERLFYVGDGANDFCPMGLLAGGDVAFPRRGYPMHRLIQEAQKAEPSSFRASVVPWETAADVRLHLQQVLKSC

In the case of `CCN(CC)CCCNc1[nH]c2ccccc2c2nc3ccc(OC)cc3c1-2`, the IC50 [1] is reported as > 67.5 µM (inactive), the AC50 [2] is reported as < 0.15 µM (active) and the AC50 [3] is reported as 12.3 µM (active). For the same compound, the CC50 [4] was 15.1 µM (active), the AC50 [5] was 11.6 µM (active) and the IC50 [6] was 31.7 µM (active). The AC50 [7] was > 20 µM (inactive), the AC50 [8] was 6.91 µM (active) and the CC50 [9] was 1.41 µM (active). For the same compound, the EC50 [10] was > 67.5 µM (inactive) and the AC50 [11] was 4.9 µM (active).
For `O=c1c2ccccc2sn1-c1ccc(F)c(Cl)c1`, the IC50 [12] was 1.79 µM (inactive), the IC50 [13] was > 100 µM (inactive) and the IC50 [14] was > 50 µM (inactive).
For `Cc1ccc(S(=O)(=O)c2cc3c(=O)n4cccc(C)c4nc3n(C3CCCCC3)c2=N)cc1`, the AC50 [15] was 410 µM (active).

From ChEMBL document CHEMBL1201862, “PubChem BioAssay data set” (2004)
